This passage reports Binding % results from patent publication US10111874B2, “Combination therapies for treatment of cancer” (Araxes Pharma LLC, priority 2014, dated 2018).

The target of the first experiment is T1, KRAS G12C 1-169, his-tagged protein, GDP-loaded (Homo sapiens, UniProt P01116, G12C).
T1 construct: KRAS G12C 1-169, his-tagged protein, GDP-loaded
T1 sequence (P01116 1-169 isoform P01116-2 G12C): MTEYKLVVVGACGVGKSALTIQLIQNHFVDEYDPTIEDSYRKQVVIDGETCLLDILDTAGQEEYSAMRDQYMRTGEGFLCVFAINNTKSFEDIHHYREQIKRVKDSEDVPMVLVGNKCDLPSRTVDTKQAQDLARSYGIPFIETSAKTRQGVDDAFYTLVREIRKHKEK
Kind of experiment: Biochemical assay: covalent binding to KRAS G12C analyzed by mass spectrometry. Also: test concentration or dose not given here. The following applies: determined at 2 hrs.
Take `C=CC(=O)N1CC(N2CCN(C(=O)CNc3cc(C(C)C)c(Cl)cc3O)CC2)C1` [II-50, 1-(3-(4-(2-(4-Chloro-2-hydroxy-5-isopropylphenylamino)acetyl)piperazin-1-yl)azetidin-1-yl)prop-2-en-1-one]: the Binding % entry is listed as “++ (++indicates binding activity greater than 20%)”.
As to `C=CC(=O)N1CC(N2CCN(C(=O)CNc3cc(C4CC4)c(Cl)cc3O)CC2C(N)=O)C1` (stereo not drawn) [II-51, 1-(1-acryloylazetidin-3-yl)-4-(2-(4-chloro-5-cyclopropyl-2-hydroxyphenylamino)acetyl)piperazine-2-carboxamide], the Binding % result is reported as “++ (++indicates binding activity greater than 20%)”.
Take `C=CC(=O)N1CC(N2CCN(C(=O)CNc3cc(Cl)c(CC)cc3O)CC2)C1` [II-52, 1-(3-(4-(2-(5-chloro-4-ethyl-2-hydroxyphenylamino)acetyl)piperazin-1-yl)azetidin-1-yl)prop-2-en-1-one]: the Binding % result is recorded as “+ (+indicates binding activity from 5% to 20%)”.
As for `C=CC(=O)N1CC(N2CCN(C(=O)CNc3cc(C4CCC4)c(Cl)cc3O)CC2)C1` [II-53, 1-(3-(4-(2-(4-chloro-5-cyclobutyl-2-hydroxyphenylamino)acetyl)piperazin-1-yl)azetidin-1-yl)prop-2-en-1-one], the Binding % entry is recorded as “++ (++indicates binding activity greater than 20%)”.
In the case of `C=CC(=O)N1CC(N2CCN(C(=O)CNc3cc(C4CC4)c(Cl)cc3O)CC2CO)C1` (stereo not drawn) [II-54, 1-(3-(4-(2-(4-Chloro-5-cyclopropyl-2-hydroxyphenylamino)acetyl)-2-(hydroxymethyl)piperazin-1-yl)azetidin-1-yl)prop-2-en-1-one], the Binding % result was “++ (++indicates binding activity greater than 20%)”.
On the same count and under the same terms, the same measure for `C=CC(=O)N1CC(N2CCN(C(=O)CNc3cc(CC)c(Cl)cc3O)CC2)C1` [II-55, 1-(3-(4-(2-(4-chloro-5-ethyl-2-hydroxyphenylamino)acetyl)piperazin-1-yl)azetidin-1-yl)prop-2-en-1-one]: “++ (++indicates binding activity greater than 20%)”; for `C=CC(=O)N1CC(N2CCN(C(=O)CNc3cc(C4CC4(F)F)c(Cl)cc3O)CC2)C1` (stereo not drawn) [II-56, 1-(3-(4-((4-chloro-5-(2,2-difluorocyclopropyl)-2-hydroxyphenyl)glycyl)piperazin-1-yl)azetidin-1-yl)prop-2-en-1-one]: “++ (++indicates binding activity greater than 20%)”.
On the same count and under the same terms, the same measure for `C=CC(=O)N1CC(N2CCN(C(=O)CNc3cc(CC(F)(F)F)c(Cl)cc3O)CC2)C1` [II-57, 1-(3-(4-(2-((4-Chloro-2-hydroxy-5-(2,2,2-trifluoroethyl)phenyl)amino)acetyl)piperazin-1-yl)azetidin-1-yl)prop-2-en-1-one]: “++ (++indicates binding activity greater than 20%)”; for `C=CC(=O)N1CC(N2CCN(C(=O)CCc3cc(C4CC4)c(Cl)cc3O)CC2)C1` [II-58, 1-(3-(4-(3-(4-Chloro-5-cyclopropyl-2-hydroxyphenyl)propanoyl)piperazin-1-yl)azetidin-1-yl)prop-2-en-1-one]: “+ (+indicates binding activity from 5% to 20%)”; for `C=CC(=O)N1CC(N2CCN(C(=O)C(C)Nc3cc(C4CCC4)c(Cl)cc3O)CC2)C1` (stereo not drawn) [II-59, 1-(3-(4-(2-(4-chloro-5-cyclobutyl-2-hydroxyphenylamino)propanoyl)piperazin-1-yl)azetidin-1-yl)prop-2-en-1-one]: “++ (++indicates binding activity greater than 20%)”.
Turning to `C=CC(=O)N1CC(N2CCN(C(=O)CNc3cc(C4CC4)c(Cl)cc3O)CC2C)C1` (stereo not drawn) [II-60, 1-(3-(4-(2-((4-Chloro-5-cyclopropyl-2-hydroxyphenyl)amino)acetyl)-2-methylpiperazin-1-yl)azetidin-1-yl)prop-2-en-1-one], the Binding % result is “++ (++indicates binding activity greater than 20%)”.
For the compound `C=CC(=O)N1CC(N2CCN(C(=O)Cc3c[nH]c4cc(Cl)c(Cl)cc34)CC2)C1` [II-61, 1-(3-(4-(2-(5,6-Dichloro-1H-indol-3-yl)acetyl)piperazin-1-yl)azetidin-1-yl)prop-2-en-1-one], the Binding % entry was “+ (+indicates binding activity from 5% to 20%)”.
Consider `C=CC(=O)N1CC(N2CCN(C(=O)/C=C/c3cc(C4CC4)c(Cl)cc3O)CC2)C1` [II-62, (E)-1-(4-(1-Acryloylazetidin-3-yl)piperazin-1-yl)-3-(4-chloro-5-cyclopropyl-2-hydroxyphenyl)prop-2-en-1-one], for which the Binding % entry is given as “+ (+indicates binding activity from 5% to 20%)”.
The same measure, in the same setting: the result for `C=CC(=O)N1CC(N2CCN(C(=O)CNc3cc(C4CC4)c(Cl)cc3O)C[C@H]2CO)C1` [II-63, (S)-1-(3-(4-(2-(4-chloro-5-cyclopropyl-2-hydroxyphenyl-amino)acetyl)-2-(hydroxymethyl)-piperazin-1-yl)azetidin-1-yl)prop-2-en-1-one] reads “++ (++indicates binding activity greater than 20%)”.
Take `C=CC(=O)N1CC(N2CCN(C(=O)CNc3cc(C4(C)CC4)c(Cl)cc3O)CC2)C1` [II-64, 1-(3-(4-(2-((4-Chloro-2-hydroxy-5-(1-methylcyclopropyl)phenyl)amino)acetyl)piperazin-1-yl)azetidin-1-yl)prop-2-en-1-one]: the Binding % entry was “++ (++indicates binding activity greater than 20%)”.
As to `C=CC(=O)N1CC(N2CCN(C(=O)CSc3cc(C4CC4)c(Cl)cc3OC)CC2)C1` [II-65, 1-(3-(4-(2-(4-Chloro-5-cyclopropyl-2-methoxyphenylthio)acetyl)piperazin-1-yl)azetidin-1-yl)prop-2-en-1-one], the Binding % result is given as “+ (+indicates binding activity from 5% to 20%)”.
For `C=CC(=O)N1CC(N2CCN(C(=O)[C@H](C)Nc3cc(C4CC4)c(Cl)cc3O)CC2)C1` [II-67, (S)-1-(3-(4-(2-((4-Chloro-5-cyclopropyl-2-hydroxyphenyl)amino)propanoyl)piperazin-1-yl)azetidin-1-yl)prop-2-en-1-one], the Binding % result was “++ (++indicates binding activity greater than 20%)”.

Still in this experiment, the particulars now being: determined at 24 hrs.
As for `C=CC(=O)N1CC(N2CCN(C(=O)CNc3cc(C(F)(F)F)c(Cl)cc3OC)CC2)C1` [II-37, 1-(3-(4-(2-(4-chloro-2-methoxy-5-(trifluoromethyl)-phenylamino)acetyl)-piperazin-1-yl)azetidin-1-yl)prop-2-en-1-one], the Binding % entry is “++ (++indicates binding activity greater than 15% and up to 25%)”.
For the compound `C=CC(=O)N1CC(N2CCN(C(=O)CNc3ncc(Cl)s3)CC2)C1` [II-38, 1-(3-(4-(2-(5-chlorothiazol-2-ylamino)acetyl)piperazin-1-yl)azetidin-1-yl)prop-2-en-1-one], the Binding % result is on record as “+ (+indicates binding activity from 5% to 15%)”.
Regarding `C=CC(=O)N1CCN(C2CN(C(=O)CNc3cc(Cl)c(Cl)cc3O)C2)CC1` [II-39, 1-(4-(1-(2-(4,5-dichloro-2-hydroxyphenyl-amino)acetyl)azetidin-3-yl)piperazin-1-yl)prop-2-en-1-one], the Binding % entry is “+++ (+++indicates binding activity greater than 25% and up to 50%)”.
For `C=CS(=O)(=O)N1CCN(C2CN(C(=O)CNc3cc(Cl)c(Cl)cc3O)C2)CC1` [II-40, 2-(4,5-dichloro-2-hydroxyphenylamino)-1-(3-(4-(vinylsulfonyl)-piperazin-1-yl)azetidin-1-yl)ethanone], the Binding % result is given as “++++ (++++indicates binding activity greater than 50%)”.
In the case of `C=CS(=O)(=O)N1CCC(N2CCN(C(=O)CNc3cc(Cl)c(Cl)cc3O)CC2)C1` (stereo not drawn) [II-41, 2-(4,5-dichloro-2-hydroxyphenylamino)-1-(4-(1-(vinylsulfonyl)-pyrrolidin-3-yl)piperazin-1-yl)ethanone], the Binding % entry is recorded as “++++ (++++indicates binding activity greater than 50%)”.
Turning to `C=CC(=O)N1CC(N2CCN(C(=O)CN3CC(=O)Nc4ccccc43)CC2)C1` [II-42, 4-(2-(4-(1-acryloylazetidin-3-yl)piperazin-1-yl)-2-oxoethyl)-3,4-dihydroquinoxalin-2(1H)-one], the Binding % entry is listed as “+ (+indicates binding activity from 5% to 15%)”.
For `C=CC(=O)N1CC(N2CCN(C(=O)CNc3cc4ccccc4cc3O)CC2)C1` [II-43, 1-(3-(4-(2-(3-hydroxynaphthalen-2-ylamino)acetyl)-piperazin-1-yl)azetidin-1-yl)prop-2-en-1-one], the Binding % entry was “++++ (++++indicates binding activity greater than 50%)”.
`C=CC(=O)N1CC(N2CCN(C(=O)CNc3cc(Cl)c(Cl)c(C(N)=O)c3)CC2)C1` [II-44, 5-(2-(4-(1-acryloylazetidin-3-yl)piperazin-1-yl)-2-oxoethylamino)-2,3-dichlorobenzamide]: the Binding % entry is reported as “+ (+indicates binding activity from 5% to 15%)”.
In the case of `C=CC(=O)NC1CN(C2CN(C(=O)CNc3cc(C4CC4)c(Cl)cc3O)C2)C1` [II-45, N-(1′-(2-(4-chloro-5-cyclopropyl-2-hydroxyphenyl-amino)acetyl)-1,3′-biazetidin-3-yl)acrylamide], the Binding % entry is on record as “++++ (++++indicates binding activity greater than 50%)”.
`C=CC(=O)N1CC(N2CCN(C(=O)CNc3cc(C=O)c(Cl)cc3OC)CC2)C1` [II-46, 5-(2-(4-(1-acryloylazetidin-3-yl)piperazin-1-yl)-2-oxoethylamino)-2-chloro-4-methoxybenzaldehyde]: the Binding % result is reported as “+ (+indicates binding activity from 5% to 15%)”.
Regarding `C=CC(=O)N1CC(N2CCN(C(=O)c3cc(C4CC4)c(Cl)cc3OC)CC2)C1` [II-47, 1-(3-(4-(4-chloro-5-cyclopropyl-2-methoxybenzoyl)-piperazin-1-yl)azetidin-1-yl)prop-2-en-1-one], the Binding % result is listed as “+ (+indicates binding activity from 5% to 15%)”.
For `C=CC(=O)N1CC(N2CCN(C(=O)c3cc(-c4cc(Cl)ccc4Cl)c(Cl)cc3O)CC2)C1` [II-48, 1-(3-(4-(2′,5′,6-trichloro-4-hydroxybiphenyl-carbonyl)piperazin-1-yl)azetidin-1-yl)prop-2-en-1-one], the Binding % result is “++ (++indicates binding activity greater than 15% and up to 25%)”.
For the compound `C=CC(=O)N1CC(N2CCN(C(=O)C(CC)Nc3cc(Cl)c(Cl)cc3O)CC2)C1` (stereo not drawn) [II-49, 1-(4-(1-acryloylazetidin-3-yl)piperazin-1-yl)-2-(4,5-dichloro-2-hydroxyphenyl-amino)butan-1-one], the Binding % result is “++++ (++++indicates binding activity greater than 50%)”.
